Measured values taken from PubChem BioAssay (NCI).
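Where inhibition never reached the appropriate level, the endpoint shown equals the highest concentration tested. Otherwise, values were interpolated linearly from a five-concentration, 48-hour dose response in 96-well plates. GI50: concentration for 50% inhibition of growth. TGI denotes the concentration required for complete inhibition of growth.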

Experiments:
Assay in all cases: inhibition of tumour cell growth, NCI panel, 48 h
SW-620 colon = system: SW-620 colon
SNB-19 CNS = system: SNB-19 CNS
NCI-H23 lung = system: NCI-H23 lung
T-47D breast = system: T-47D breast
NCI/ADR-RES ovarian = system: NCI/ADR-RES ovarian
RXF 393 renal = system: RXF 393 renal
A549 NSCLC = system: A549 NSCLC
MALME-3M melanoma = system: MALME-3M melanoma
OVCAR-8 ovarian = system: OVCAR-8 ovarian
SK-MEL-5 melanoma = system: SK-MEL-5 melanoma

Row | SMILES | GI50 (SW-620 colon) | TGI (SW-620 colon) | GI50 (SNB-19 CNS) | TGI (SNB-19 CNS) | GI50 (NCI-H23 lung) | TGI (NCI-H23 lung) | GI50 (T-47D breast) | TGI (T-47D breast) | GI50 (NCI/ADR-RES ovarian) | TGI (NCI/ADR-RES ovarian) | GI50 (RXF 393 renal) | TGI (RXF 393 renal) | GI50 (A549 NSCLC) | TGI (A549 NSCLC) | GI50 (MALME-3M melanoma) | TGI (MALME-3M melanoma) | GI50 (OVCAR-8 ovarian) | TGI (OVCAR-8 ovarian) | GI50 (SK-MEL-5 melanoma) | TGI (SK-MEL-5 melanoma)
1 | COc1cc2c(c(OC)c1OC)-c1ccc(NNC(=S)N(Cc3cccc(C[N+](Cc4cccc(CNC56CC7CC(CC(C7)C5)C6)c4)(Cc4cccc(CNC56CC7CC(CC(C7)C5)C6)c4)Cc4cccc(CN(C(=S)NNc5ccc6c(cc5=O)[C@@H](NC(C)=O)CCc5cc(OC)c(OC)c(OC)c5-6)C56CC7CC(CC(C7)C5)C6)c4)c3)C34CC5CC(CC(C5)C3)C4)c(=O)cc1[C@@H](NC(C)=O)CC2 (stereo not given in full) | 814 nM | 2.06 µM | 1.65 µM | 6.2 µM | 1380 nM | 5.33 µM | 1830 nM | 9.4 µM | 5.43 µM | 12.5 µM | 1700 nM | 6.65 µM | 1610 nM | 6 µM | 830 nM | 3.04 µM | 2.03 µM | 7.49 µM | 810 nM | 2.25 µM
2 | Cc1nc2cncc(C#Cc3cncc(C(=O)Nc4ccc(CN5CCN(C)CC5)c(C(F)(F)F)c4)c3)c2nc1C | 284 nM | 1.64 µM | 5.08 µM | 13.2 µM | 770 nM | 6.05 µM | 1240 nM | 22.7 µM | 1.83 µM | 8.65 µM | 268 nM | 1.76 µM | 585 nM | 7.28 µM | 146 nM | 0.623 µM | 0.721 µM | 8.88 µM | 839 nM | 2.35 µM
3 | CCN(CC)CCOc1ccc(Nc2ncc3cc(-c4c(Cl)cccc4Cl)c(=O)n(CCOC)c3n2)cc1 | 1200 nM | 5.86 µM | 0.458 µM | 6.01 µM | 806 nM | 3.95 µM | 133 nM | 16.5 µM | 0.415 µM | 7.2 µM | 18.4 nM | 0.133 µM | 498 nM | 4.18 µM | 390 nM | 3.95 µM | 0.2 µM | 3.95 µM | 1510 nM | 5.94 µM
4 | OCc1cccc(-c2ccc3ncc(-c4nc(NC5CC5)ncc4F)n3c2)c1 | 258 nM | 0.971 µM | 0.323 µM | 4.18 µM | 281 nM | 1.19 µM | 274 nM | 3.93 µM | 0.321 µM | 1.68 µM | 139 nM | 0.356 µM | 341 nM | > 100 µM | 375 nM | 1.06 µM | 0.301 µM | > 100 µM | 275 nM | 0.821 µM
5 | OCCCCC#Cc1ccccc1C#Cc1ccccc1F | 22200 nM | 44.4 µM | 17.5 µM | 36.8 µM | 20200 nM | 43.1 µM | 16100 nM | 42.6 µM | 21.1 µM | 46.7 µM | 7630 nM | 25.6 µM | 15700 nM | 34.5 µM | 26100 nM | 46.9 µM | 20.8 µM | 47.9 µM | 23600 nM | 52.3 µM
6 | N#Cc1cccc(C(=O)c2cnn(-c3ccc(F)cc3)c2N)c1 | > 25000 nM | > 25 µM | > 25 µM | > 25 µM | > 25000 nM | > 25 µM | > 25000 nM | > 25 µM | > 25 µM | > 25 µM | > 23400 nM | > 25 µM | > 25000 nM | > 25 µM | > 25000 nM | > 25 µM | > 25 µM | > 25 µM | > 25000 nM | > 25 µM
7 | CSc1ccc(-c2cc(-c3ccc(NC(=O)CCCN4CCCC4)cc3)nc(-c3ccc(NC(=O)CCCN4CCCC4)cc3)c2)cc1 | 1790 nM | 3.29 µM | 4.92 µM | 23.8 µM | 1670 nM | 3.16 µM | 6520 nM | 21.7 µM | 12.4 µM | 31.3 µM | 2230 nM | 5.93 µM | 1670 nM | 3.17 µM | 14000 nM | 42.7 µM | 3.3 µM | 13.6 µM | 2740 nM | 10.7 µM
8 | Cc1ccccc1S(=O)(=O)N1[C@H](c2ccc(Cl)cc2)C(C(=O)N[C@@H](Cc2ccccc2)C(N)=O)=C[C@@H]1C(C)(C)C | 7760 nM | 19.8 µM | 6.07 µM | 17.3 µM | 8050 nM | 17.6 µM | 5000 nM | 20.2 µM | 6.69 µM | 21 µM | 5010 nM | 11.9 µM | 3430 nM | 13.1 µM | 10200 nM | 20.1 µM | 5.95 µM | 25.4 µM | 6800 nM | 13.5 µM
9 | Nc1c(C(=O)c2cccc(-c3ccc[n+]([O-])c3)c2)cnn1-c1ccc(F)cc1F | > 25000 nM | > 25 µM | > 25 µM | > 25 µM | > 25000 nM | > 25 µM | > 25000 nM | > 25 µM | > 25 µM | > 25 µM | > 25000 nM | > 25 µM | > 25000 nM | > 25 µM | > 25000 nM | > 25 µM | > 25 µM | > 25 µM | > 25000 nM | > 25 µM
10 | CCN(CC)c1ccc(N=C2C=C(C(=O)Nc3ccc(S(C)(=O)=O)cc3)C(=O)c3ccccc32)c(C)c1 | > 100000 nM | > 100 µM | 4.39 µM | > 100 µM | 82000 nM | > 100 µM | 51900 nM | > 100 µM | 94 µM | > 100 µM | > 100000 nM | > 100 µM | 49600 nM | > 100 µM | 30900 nM | > 100 µM | > 100 µM | > 100 µM | 5840 nM | > 100 µM
11 | O=C1c2ccccc2-c2c1c1ccc([N+](=O)[O-])cc1c(=O)n2CCNCCCNCCn1c2c(c3ccc([N+](=O)[O-])cc3c1=O)C(=O)c1ccccc1-2 | 64.1 nM | 5.68 µM | 0.126 µM | 4.94 µM | 68.2 nM | 6.97 µM | 2070 nM | 11.3 µM | 0.923 µM | 25.9 µM | 389 nM | 13.8 µM | 521 nM | 17.6 µM | 626 nM | 30.8 µM | 0.0989 µM | 8.76 µM | 347 nM | 7.51 µM
12 | COc1cc(C(=O)/C=C/c2c(-c3ccc(F)cc3)nc3sc(C)cn23)cc(OC)c1OC | 5340 nM | > 100 µM | 87.7 µM | > 100 µM | 2240 nM | 8.87 µM | 2930 nM | > 100 µM | 2.63 µM | 15.8 µM | 5750 nM | > 100 µM | 9340 nM | > 100 µM | 2690 nM | > 100 µM | 4.94 µM | > 100 µM | 516 nM | 1.98 µM
